Assay results from patent US10577378B2, “EIF4A-inhibiting compounds and methods related thereto” (eFFECTOR Therapeutics, Inc., priority 2015, dated 2020).

System: MDA-MB-231 human breast cancer cells
Assay: Cell proliferation assay (CellTiter-Glo, 72 hours treatment)
Type: cell-based
Settings: Homo sapiens; MDA-MB-231 cells, 72 hours at 37° C., CellTiter-Glo; read-out: MDA-MB-231 cell proliferation assay (IC50)
Summary of the method: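 IC50 categories: under 100 nM +++, 100–1000 nM ++, above 1000 nM +, derived by sigmoidal curve fitting of CellTiter-Glo luminescence. Cells plated at 2,500 per well, dosed the following day and exposed 72 h at 37 °C versus DMSO control.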

Row | Structure (SMILES) | IC50
1 | COc1cnc2c(c1)O[C@@]1(c3ccc(C#N)cc3)[C@H](c3ccccc3)[C@@H](C(=O)N(C)C)[C@@H](O)[C@@]21O (single isomer, unassigned) [6F] | 0.1 to 1 µM
2 | COc1cncc2c1[C@]1(O)[C@H](O)[C@H](C(=O)N3[C@@H]4COC[C@H]3C4)[C@@H](c3ccccc3)[C@]1(c1ccc(Br)cc1)O2 (racemic) [266F, Rac-((1R,5S)-3-oxa-6-azabicyclo[3.1.1]heptan-6-yl)((4bS,5R,6R,7S,7aR)-7a-(4-bromophenyl)-4b,5-dihydroxy-4-methoxy-7-phenyl-4b,6,7,7a-tetrahydro-5H-cyclopenta[4,5]furo[2,3-c]pyridin-6-yl)methanone] | < 0.1 µM
3 | COc1ccc([C@@]23Oc4cc(OC)ccc4[C@]2(NC(C)=O)[C@H](O)[C@H](C(=O)N(C)C)[C@H]3c2ccccc2)cc1 (racemic) [45F, Rac-(1R,2R,3S,3aR,8bS)-8b-acetamido-1-hydroxy-6-methoxy-3a-(4-methoxyphenyl)-N,N-dimethyl-3-phenyl-2,3,3a,8b-tetrahydro-1H-cyclopenta[b]benzofuran-2-carboxamide] | > 1 µM
4 | COc1cncc2c1[C@]1(O)[C@H](O)[C@H](C(=O)N(C)CC(C)(C)O)[C@@H](c3ccccc3)[C@]1(c1ccc(Br)cc1)O2 (racemic) [251F, Rac-(4bS,5R,6R,7S,7aR)-7a-(4-bromophenyl)-4b,5-dihydroxy-N-(2-hydroxy-2-methylpropyl)-4-methoxy-N-methyl-7-phenyl-4b,6,7,7a-tetrahydro-5H-cyclopenta[4,5]furo[2,3-c]pyridine-6-carboxamide] | < 0.1 µM
5 | Clc1cnc2c(c1)O[C@@]1(c3ccc(Br)cc3)[C@H](c3ccccc3)C[C@@H]3O[C@@]231 (racemic) [63F, Rac-(1aS,3S,3aR,8bS)-3a-(4-bromophenyl)-6-chloro-3-phenyl-1a,2,3,3a-tetrahydro-oxireno[2″,3″:1′,5′]cyclopenta[1′,2′:4,5]furo[3,2-b]pyridine] | > 1 µM
6 | COc1cncc2c1[C@]1(O)[C@H](O)[C@H](C(=O)N3CC4(COC4)C3)[C@@H](c3ccccc3)[C@]1(c1ccc(Br)cc1)O2 (racemic) [235F, Rac-((4bS,5R,6R,7S,7aR)-7a-(4-bromophenyl)-4b,5-dihydroxy-4-methoxy-7-phenyl-4b,6,7,7a-tetrahydro-5H-cyclopenta[4,5]furo[2,3-c]pyridin-6-yl)(2-oxa-6-azaspiro[3.3]heptan-6-yl)methanone] | < 0.1 µM
7 | COc1cncc2c1[C@]1(O)[C@H](O)[C@H](C(=O)N3CCOCC3)[C@@H](c3ccccc3)[C@]1(c1ccc(C(F)(F)F)cc1)O2 (racemic) [281F, rac-((4bS,5R,6R,7S,7aR)-4b,5-dihydroxy-4-methoxy-7-phenyl-7a-(4-(trifluoromethyl)phenyl)-4b,6,7,7a-tetrahydro-5H-cyclopenta[4,5]furo[2,3-c]pyridin-6-yl)(morpholino)methanone] | 0.1 to 1 µM
8 | CN(C)C(=O)[C@H]1C(=O)[C@@]2(O)c3ncc(Cl)cc3O[C@@]2(c2ccc(C#N)cc2)[C@@H]1c1ccccc1 (racemic) [32F, Rac-(5aR,6S,7R,8aR)-3-chloro-5a-(4-cyanophenyl)-8a-hydroxy-N,N-dimethyl-8-oxo-6-phenyl-5a,7,8,8a-tetrahydro-6H-cyclopenta[4,5]furo[3,2-b]pyridine-7-carboxamide] | > 1 µM
9 | COc1cncc2c1[C@]1(O)[C@H](O)[C@H](C(=O)N(C)CC(F)(F)F)[C@@H](c3ccccc3)[C@]1(c1ccc(Br)cc1)O2 (racemic) [88F, Rac-(4bS,5R,6R,7S,7aR)-7a-(4-bromophenyl)-4b,5-dihydroxy-4-methoxy-N-methyl-7-phenyl-N-(2,2,2-trifluoroethyl)-4b,6,7,7a-tetrahydro-5H-cyclopenta[4,5]furo[2,3-c]pyridine-6-carboxamide] | < 0.1 µM
10 | OC[C@H]1C[C@@H](c2ccccc2)[C@]2(c3ccc(Br)cc3)Oc3cc(Cl)cnc3[C@]12O (racemic) [162F, Rac-(5aR,6S,8R,8aR)-5a-(4-bromophenyl)-3-chloro-8-(hydroxymethyl)-6-phenyl-5a,6,7,8-tetrahydro-8aH-cyclopenta[4,5]furo[3,2-b]pyridin-8a-ol] | 0.1 to 1 µM
11 | COc1nc(Cl)cc2c1[C@]1(O)[C@H](O)[C@H](C(=O)N3CC(C(F)F)C3)[C@@H](c3ccccc3)[C@]1(c1ccc(Br)cc1)O2 (racemic) [215F, Rac-((5aR,6S,7R,8R,8aS)-5a-(4-bromophenyl)-3-chloro-8,8a-dihydroxy-1-methoxy-6-phenyl-5a,7,8,8a-tetrahydro-6H-cyclopenta[4,5]furo[3,2-c]pyridin-7-yl)(3-(difluoromethyl)azetidin-1-yl)methanone] | < 0.1 µM
12 | COC(=O)[C@H]1[C@@H](O)[C@@]2(O)c3nn(C)cc3O[C@@]2(c2ccc(C#N)cc2)[C@@H]1c1ccccc1 (racemic) [21F, Rac-methyl (4aR,5S,6R,7R,7aS)-4a-(4-cyanophenyl)-7,7a-dihydroxy-2-methyl-5-phenyl-2,4a,5,6,7,7a-hexahydrocyclopenta[4,5]furo[3,2-c]pyrazole-6-carboxylate] | > 1 µM
13 | CCN(CC)C[C@H]1[C@@H](O)[C@@]2(O)c3c(cc(C#N)nc3OC)O[C@@]2(c2ccc(C#N)cc2)[C@@H]1c1ccccc1 (racemic) [159Fc, Rac-(5aR,6S,7S,8R,8aS)-5a-(4-cyanophenyl)-7-((diethylamino)methyl)-8,8a-dihydroxy-1-methoxy-6-phenyl-5a,7,8,8a-tetrahydro-6H-cyclopenta[4,5]furo[3,2-c]pyridine-3-carbonitrile] | < 0.1 µM
14 | COc1cncc2c1[C@]1(O)[C@H](O)[C@H](CN(C)C)[C@@H](c3ccccc3)[C@]1(c1ccc(Cl)cc1)O2 (single isomer, unassigned) [272F] | < 0.1 µM
15 | COC(=O)[C@H]1[C@@H](O)[C@@]2(F)c3ncc(Cl)cc3O[C@@]2(c2ccc(Br)cc2)[C@@H]1c1ccccc1 (racemic) [43F, Rac-methyl (5aR,6S,7R,8R,8aS)-5a-(4-bromophenyl)-3-chloro-8a-fluoro-8-hydroxy-6-phenyl-5a,7,8,8a-tetrahydro-6H-cyclopenta[4,5]furo[3,2-b]pyridine-7-carboxylate] | > 1 µM
16 | COc1cncc2c1[C@]1(O)[C@](O)(CN3CCOCC3)C[C@@H](c3ccccc3)[C@]1(c1ccc(C#N)cc1)O2 (racemic) [287F, Rac-4-((4bS,5R,7S,7aR)-4b,5-dihydroxy-4-methoxy-5-(morpholinomethyl)-7-phenyl-4b,5,6,7-tetrahydro-7aH-cyclopenta[4,5]furo[2,3-c]pyridin-7a-yl)benzonitrile] | > 1 µM
17 | COc1cncc2c1[C@]1(O)[C@@H](CN3CC4(COC4)C3)[C@H](CO)[C@@H](c3ccccc3)[C@]1(c1ccc(C#N)cc1)O2 (racemic) [202F, Rac-4-((4bR,5R,6R,7S,7aR)-5-((2-oxa-6-azaspiro[3.3]heptan-6-yl)methyl)-4b-hydroxy-6-(hydroxymethyl)-4-methoxy-7-phenyl-4b,5,6,7-tetrahydro-7aH-cyclopenta[4,5]furo[2,3-c]pyridin-7a-yl)benzonitrile] | < 0.1 µM
18 | N#Cc1ccc([C@@]23Oc4cc(Cl)cnc4[C@]2(O)[C@H](O)[C@@H](CN2CCCC2)[C@H]3c2ccccc2)cc1 (racemic) [41Fa, Rac-4-((5aR,6S,7R,8R,8aS)-3-chloro-8,8a-dihydroxy-6-phenyl-7-(pyrrolidin-1-ylmethyl)-6,7,8,8a-tetrahydro-5aH-cyclopenta[4,5]furo[3,2-b]pyridin-5a-yl)benzonitrile] | > 1 µM
